Test results published in PMC12389711, “Study on the Excretion of a New Antihypertensive Drug 221s (2,9) in Rats” (Pharmaceuticals, 2025).
Like-named read-outs stand apart in the source and are kept apart here.

Columns and labels:
[1] = Excretion study of unchanged drug in urine, feces and bile after oral administration (UPLC-MS/MS); format: in vivo, Sprague-Dawley rats; settings: 30 mg/kg oral; for dose excreted: male, Sprague-Dawley, rat, at 72 h
Method: According to previous data, analytical separation was performed using an ultra-performance liquid chromatography-tandem mass spectrometry (UPLC-MS/MS) platform comprising a Waters ACQUITY UPLC H-Class (Waters, Milford, CT, USA) system coupled to an AB Sciex Triple Quad 6500 mass spectrometer (AB Sciex, Boston, MA, USA). Chromatographic resolution was achieved on a Waters ACQUITY UPLC BEH C18 column (1.7 μm, 2.1 × 50 mm) maintained at 40 °C. The mobile phase system incorporated two components: solvent A (0.02% formic acid and 5 mM NH4F in deionized water) and solvent B (acetonitrile), delivered at 0.2 mL/min with a 10 μL injection volume. The gradient program was configured as follows: 55% solvent A (0.0–0.6 min), 5% solvent A (0.6–2.5 min), followed by re-equilibration at 55% solvent A (2.5–5.0 min).
Mass spectrometric detection utilized positive electrospray ionization (ESI+) in MRM mode, monitoring precursor-to-product ion transitions at m/z 525.1→389.1 (221s (2,9)) and 357.0→220.9 (IS). Instrument parameters were optimized as follows: curtain gas 25 psi, ion source temperature 500 °C, GS1/GS2 pressures 50/40 psi, ion spray voltage 5 kV, and collision gas pressure 10 psi. Compound-dependent parameter settings included decluttering potential (DP), entrance potential (EP), collision cell exit potential (CXP), and collision energy (CE) of 160/10/5/63 V for 221s (2,9) and 70/10/5/20 V for IS. Data processing was executed using Analyst software (v1.6.3).
Six male Sprague-Dawley (SD) rats aged 8–10 weeks (body weight: 220–250 g) were individually housed in metabolic cages. Following a 12 h fasting period with free access to water, baseline urinary and fecal samples were collected as blank controls prior to drug administration. Samples of urine and feces were collected from 0–4 h, 4–8 h, 8–12 h, 12–24 h, 24–36 h, 36–48 h, 48–60 h, 60–72 h, and 72–84 h post-administration of 221s (2,9) with an oral dosage of 30 mg/kg. Urine samples were quantitatively measured for volume before storage at −80 °C while fecal samples were dried, pulverized, and weighed prior to preservation at −80 °C.
Six male SD rats were fasted for 12 h prior to drug administration, with free access to water. After being anesthetized with isoflurane, the rats were positioned supine on surgical platforms for common bile duct cannulation. Blank bile samples were collected following stabilization of bile flow. Following oral gavage of 30 mg/kg 221s (2,9), bile samples were sequentially collected during 0–2 h, 2–4 h, 4–8 h, 8–12 h, 12–24 h, 24–36 h, 36–48 h, and 48–72 h intervals. All biliary specimens were volumetrically measured and cryopreserved at −80 °C for subsequent analysis. Hydration maintenance was ensured through intraperitoneal administration of physiological saline during experimental procedures.
A total of 10 μL of IS (1 μg/mL) was added to each urinary sample (100 μL), followed by the addition of three volumes of acetonitrile. The mixtures were vortexed and centrifuged twice. Then, the supernatants were concentrated, lyophilized and reconstituted in 100 μL of acetonitrile. The supernatants were subjected to instrumental analysis after final centrifugation.
Fecal samples (100 mg) were homogenized with three volumes of saline via ultrasonication for 10 min. Then, 10 μL of IS (1 μg/mL) was added, before adding three volumes of acetonitrile. […] After vortexing and dual centrifugation, the supernatant was concentrated, lyophilized, and reconstituted in 100 μL of acetonitrile. The supernatants were subjected to instrument for analysis after final centrifugation.
Biliary samples (100 μL) were precisely aliquoted and added with 10 μL IS (1 μg/mL). Following homogenization, three volumes of acetonitrile were added to precipitate impurities. After vortexing and centrifuging twice, the supernatant was concentrated, lyophilized, and reconstituted in 100 μL of acetonitrile. […]

ACE = ACE content in murine serum, cerebral tissue and renal compartments (preliminary data); format: in vivo; settings: cerebral tissue, renal compartments
[2] = tested on: spontaneously hypertensive rats (SHR); experiment: Serum creatinine and renal NOX2 expression in SHR; format: in vivo, rat
[3] = Stability in rat urine, feces and bile matrices (QC samples); format: in vitro ADME
Method: The stability of 221s (2,9) in rat urine, feces, and bile matrices was evaluated using QC samples at three concentration levels (10, 1000, and 1600 ng/mL) across six replicates under four conditions per matrix: three freeze–thaw cycles, short-term storage (room temperature, 2 h), long-term storage (−80 °C, 30 days), and autosampler rack storage (4 °C, 24 h). Stability was quantified by comparing post-storage concentrations (normalized to freshly prepared QC samples analyzed in the same batch) with nominal values, with deviations ≤15% considered acceptable. Dilution reliability was assessed by 5-fold dilution of QC samples (1000/1600 ng/mL) in each matrix using blank rat plasma. Dilution accuracy was verified by comparing measured concentrations (post-dilution factor correction) to nominal values, with acceptable criteria defined as ≤15% relative error (RE) and ≤15% relative standard deviation (RSD).

[4] = tested on: spontaneously hypertensive rats (SHR); design: method as in PMID 37446639; settings: cited from earlier work
mice = tested on: mice; design: method as in doi:10.19803/j.1672-8629.20220529; settings: cited from earlier work
[5] = tested on: angiotensin II (Ang II) and angiotensin-converting enzyme (ACE); design: method as in PMID 37446639; settings: SHR; cited from earlier work
[6] = design: method as in PMID 23607051; settings: cited from earlier work

CC(NC(=O)C(O)Cc1ccc(O)c(O)c1)C(=O)N1CCCC1C(=O)OC1CC2CCC1(C)C2(C)C (stereo not drawn) [221s (2,9)]
cumulative fecal output ([1]; feces, at 48 h, rats, unchanged drug): 36,726.31 ± 5507 ng | fecal excretion rate ([1]; feces, between 4 and 8 h, rats, unchanged drug): 7994.29 ± 953.75 ng/h | dose excreted ([1]; bile, bile duct cannulated rats, read-out: recovery of unchanged drug in bile (accumulative excretion rate, % of administered dose)): 0.00044 ± 2e-05% | dose excreted ([1]; feces, rats, read-out: recovery of unchanged drug in feces (accumulative excretion rate, % of administered dose)): 0.73 ± 0.069% | dose excreted ([1]; urine, rats, read-out: recovery of unchanged drug in urine (accumulative excretion rate, % of administered dose)): 0.02 ± 0.021% | total recovery of unchanged drug across all matrices (% of administered dose) ([1]; urine + feces + bile, over 72 h, rats): below 1% | peak urinary excretion rate ([1]; urine, at 8 h post-dosing, rats, unchanged drug): 138.81 ± 15.56 ng/h | cumulative urinary excretion ([1]; urine, plateau by 48 h, rats, unchanged drug): 1479.81 ± 155.7 ng | ACE content (ACE): reduces ACE content | decrease of serum creatinine level ([2]; p < 0.01): 38.99% | downregulation of renal NOX2 expression ([2]; p < 0.05): 16.23% | Stability RE (%) ([3]; bile, autosampler rack (4 °C) for 24 h, spiked 10 ng/mL): −4.4% | Stability RE (%) ([3]; bile, autosampler rack (4 °C) for 24 h, spiked 1000 ng/mL): −3.2% | Stability RE (%) ([3]; bile, autosampler rack (4 °C) for 24 h, spiked 1600 ng/mL): −3.8% | Stability RE (%) ([3]; bile, room temperature for 2 h, spiked 10 ng/mL): −5.2% | Stability RE (%) ([3]; bile, room temperature for 2 h, spiked 1000 ng/mL): −4.5% | Stability RE (%) ([3]; bile, room temperature for 2 h, spiked 1600 ng/mL): 5.1% | Stability RE (%) ([3]; bile, three freeze/thaw cycles, spiked 10 ng/mL): −8.4% | Stability RE (%) ([3]; bile, three freeze/thaw cycles, spiked 1000 ng/mL): −4.1% | Stability RE (%) ([3]; bile, three freeze/thaw cycles, spiked 1600 ng/mL): 4.2% | Stability RE (%) ([3]; bile, −80 °C for 30 days, spiked 10 ng/mL): −3.1% | Stability RE (%) ([3]; bile, −80 °C for 30 days, spiked 1000 ng/mL): 1.5% | Stability RE (%) ([3]; bile, −80 °C for 30 days, spiked 1600 ng/mL): 3.4% | Stability RE (%) ([3]; feces, autosampler rack (4 °C) for 24 h, spiked 10 ng/mL): −4.9% | Stability RE (%) ([3]; feces, autosampler rack (4 °C) for 24 h, spiked 1000 ng/mL): −2.2% | Stability RE (%) ([3]; feces, autosampler rack (4 °C) for 24 h, spiked 1600 ng/mL): 4.6% | Stability RE (%) ([3]; feces, room temperature for 2 h, spiked 10 ng/mL): −6.7% | Stability RE (%) ([3]; feces, room temperature for 2 h, spiked 1000 ng/mL): −3.6% | Stability RE (%) ([3]; feces, room temperature for 2 h, spiked 1600 ng/mL): −4.7% | Stability RE (%) ([3]; feces, three freeze/thaw cycles, spiked 10 ng/mL): −5.3% | Stability RE (%) ([3]; feces, three freeze/thaw cycles, spiked 1000 ng/mL): −4.8% | Stability RE (%) ([3]; feces, three freeze/thaw cycles, spiked 1600 ng/mL): −3.2% | Stability RE (%) ([3]; feces, −80 °C for 30 days, spiked 10 ng/mL): −6.4% | Stability RE (%) ([3]; feces, −80 °C for 30 days, spiked 1000 ng/mL): −5.3% | Stability RE (%) ([3]; feces, −80 °C for 30 days, spiked 1600 ng/mL): 2.8% | degradation in urinary/fecal/biliary samples ([3]; room temperature 2 h, three freeze-thaw cycles, −80 °C 30 days, 4 °C autosampler 24 h): no significant degradation | Stability RE (%) ([3]; urine, autosampler rack (4 °C) for 24 h, spiked 10 ng/mL): −7.3% | Stability RE (%) ([3]; urine, autosampler rack (4 °C) for 24 h, spiked 1000 ng/mL): −6.3% | Stability RE (%) ([3]; urine, autosampler rack (4 °C) for 24 h, spiked 1600 ng/mL): 3.9% | Stability RE (%) ([3]; urine, room temperature for 2 h, spiked 10 ng/mL): −12.5% | Stability RE (%) ([3]; urine, room temperature for 2 h, spiked 1000 ng/mL): −1.5% | Stability RE (%) ([3]; urine, room temperature for 2 h, spiked 1600 ng/mL): 3.4% | Stability RE (%) ([3]; urine, three freeze/thaw cycles, spiked 10 ng/mL): −9.4% | Stability RE (%) ([3]; urine, three freeze/thaw cycles, spiked 1000 ng/mL): −6.4% | Stability RE (%) ([3]; urine, three freeze/thaw cycles, spiked 1600 ng/mL): −2.6% | Stability RE (%) ([3]; urine, −80 °C for 30 days, spiked 10 ng/mL): −8.7% | Stability RE (%) ([3]; urine, −80 °C for 30 days, spiked 1000 ng/mL): −5.4% | Stability RE (%) ([3]; urine, −80 °C for 30 days, spiked 1600 ng/mL): −5.5% | antihypertensive efficacy compared with captopril [4]: comparable to that of captopril | reduction of diastolic blood pressure [4]: 35 mmHg | reduction of systolic blood pressure [4]: 50 mmHg | effects on body weight, dietary intake, histopathological parameters of liver, lungs and kidneys (mice; at 3000 mg/kg oral gavage): no substantial effects | acute toxicity (mice; oral gavage): no significant acute toxicity | maximum tolerated dose (mice; oral gavage): 3000 mg/kg | serum level of angiotensin II (Ang II) [5]: significantly reduced | serum level of angiotensin-converting enzyme (ACE) [5]: significantly reduced

CC1(C)C2CCC1(C)C(OC(=O)c1cc(O)c(O)c(O)c1)C2 (stereo not drawn) [bornyl gallate]
tissue distribution [6]: pronounced renal accumulation alongside measurable brain distribution
